system: Raphanus sativus L. cv. Cherry Belle cotyledons; test: Radish cotyledon bioassay (expansion growth and chlorophyll accumulation); type: in vivo; conditions: Experiment 1; 20 mg/l; 72 h
Text: Radish cotyledon bioassay: This bioassay using Raphanus sativus L. cv. Cherry Belle cotyledons was developed by Letham, DS (Physiologia Plantarum 25, 391–396, 1971, incorporated by reference in its entirety) to evaluate the efficacy of cytokinin on cell enlargement. Success using this assay is not restricted to radish. […] In addition to their effect on cell division, cytokinin plays a major role in driving cell enlargement. Compounds in this class of phytohormone and with cytokinin activity also help maintain photosynthetic activity and productivity and abolish proteolytic activity. In cotyledon leaf systems, a requirement for cytokinin is critical and removal of the roots (i.e. the presumed source of cytokinin) renders the cotyledon leaves unable to expand. Exposure to cytokinin (0.02–22 μg/ml) results in a dramatic increase in fresh weight of cotyledons within 72 hours. This effect is not observed with either gibberellin or auxin and is usually delayed or inhibited by abscisic acid and the ethylene precursor, 1-aminocyclopropane-1-carboxylic acid (ACC). […] Thus, the mode of action of cytokinin in this system appears to be similar to that of indole-3-acetic acid (IAA) in auxin-induced stem elongation, a process that depends on an increase in the mechanical extensibility of the cell wall. However, cytokinin antagonizes IAA-mediated cell elongation and appears to do so by promoting ethylene production. Furthermore, cytokinin-induced cell expansion is not usually accompanied by proton (H^+) extrusion and no change in plasma membrane ATPase activity is evident.
Seeds of Raphanus sativus L. cv. Cherry-Belle were germinated in darkness at 24° C. for 36 h in Petri dishes containing filter paper wetted with distilled water. The smaller of the two cotyledons was excised, the fresh weight determined, and 10 cotyledons placed adaxial side down on filter paper in Petri dishes containing 10 ml of KPO4 buffer (2 mM, pH 6.0) and the compounds to be tested at 20 mg/l. […] Chlorophyll content was determined after extraction of tissue into 80% ethanol (containing butylated hydroxytoluene (BHT) 10 mg/l) using the equations Chl a=(13.95A663)−(6.88A647) and Chl b=(24.96A652)−(7.32A663) as described by Lichtenthaler, HK, Methods in Enzymology 148: 350–382, 1987, incorporated by reference in its entirety. FIG. 6 illustrates the difference in cotyledon size in response to the cytokinin kinetin.

Q: Which Chlorophyll a/b does the source give for CC(=O)NCCO [NAE-2, N-Acetyl-2-aminoethanol] here?
A: 1.3

same assay, conditions: Experiment 1; 20 mg/l; 72 h; continuous illumination, 25° C.; ten cotyledons

Q: For CC(=O)NCCO [NAE-2, N-Acetyl-2-aminoethanol], which “Change in fresh weight” value is on record?
A: 12.52 ± 2.83 mg

same assay, conditions: Experiment 2; 20 mg/l; 48 h

Q: How did the “Chlorophyll (mg/g FW) a + b” value turn out when CCCCCCCCCCCCCC(=O)NCCO [NAE-14:0, N-Tetradecanoyl-2-aminoethanol] was run?
A: 1.90 mg/g FW

Q: What about the “Chlorophyll (μg/cotyledon) a + b” value of the same compound?
A: 23.41 μg/cotyledon

Q: And the Chlorophyll a/b?
A: 1.8

Q: For CCCCCCCC/C=C\CCCCCCCC(=O)NCCO [NAE-18:1(Δ9), N-Oleoyl-2-aminoethanol], which “Chlorophyll (mg/g FW) a + b” value is on record?
A: 1.99 mg/g FW

Q: And the “Chlorophyll (μg/cotyledon) a + b” value?
A: 20.29 μg/cotyledon

Q: And the Chlorophyll a/b?
A: 2.0

Q: CCCC(=O)NCCO [NAE-4:0, N-Butyroyl-2-aminoethanol] was tested. Which “Chlorophyll (mg/g FW) a + b” value did it give?
A: 2.00 mg/g FW

Q: What about the “Chlorophyll (μg/cotyledon) a + b” value of the same compound?
A: 23.49 μg/cotyledon

Q: What about the Chlorophyll a/b of the same compound?
A: 1.9

Q: How did the “Chlorophyll (mg/g FW) a + b” value turn out when CC(=O)NCCO [NAE-2, N-Acetyl-2-aminoethanol] was run?
A: 1.94 mg/g FW

Q: What about the “Chlorophyll (μg/cotyledon) a + b” value of the same compound?
A: 19.88 μg/cotyledon

Q: And the Chlorophyll a/b?
A: 2.0

same assay, conditions: Experiment 2; 20 mg/l; 48 h; continuous illumination, 25° C.; ten cotyledons

Q: For CCCCCCCCCCCCCC(=O)NCCO [NAE-14:0, N-Tetradecanoyl-2-aminoethanol], which “Change in fresh weight” value is on record?
A: 7.91 ± 1.34 mg

Q: How did the “Change in fresh weight” value turn out when CCCCCCCC/C=C\CCCCCCCC(=O)NCCO [NAE-18:1(Δ9), N-Oleoyl-2-aminoethanol] was run?
A: 5.78 ± 0.96 mg

Q: For CCCC(=O)NCCO [NAE-4:0, N-Butyroyl-2-aminoethanol], which “Change in fresh weight” value is on record?
A: 7.15 ± 1.16 mg

Q: For CC(=O)NCCO [NAE-2, N-Acetyl-2-aminoethanol], which “Change in fresh weight” value is on record?
A: 5.86 ± 1.36 mg

same assay, conditions: Raphanus sativus; Experiment 1; 20 mg/l; 72 h; read-out: Change in fresh weight, % of control

Q: How did the activity at 20 µg/mL turn out when CC(=O)NCCO [NAE-2, N-Acetyl-2-aminoethanol] was run?
A: 89%

same assay, conditions: Raphanus sativus; Experiment 2; 20 mg/l; 48 h; read-out: Change in fresh weight, % of control

Q: How did the activity at 20 µg/mL turn out when CCCCCCCCCCCCCC(=O)NCCO [NAE-14:0, N-Tetradecanoyl-2-aminoethanol] was run?
A: 98%

Q: With CCCCCCCC/C=C\CCCCCCCC(=O)NCCO [NAE-18:1(Δ9), N-Oleoyl-2-aminoethanol] as the compound, how does the activity at 20 µg/mL read?
A: 71%

Q: CCCC(=O)NCCO [NAE-4:0, N-Butyroyl-2-aminoethanol] was tested. Which activity at 20 µg/mL did it give?
A: 88%

Q: CC(=O)NCCO [NAE-2, N-Acetyl-2-aminoethanol] was tested. Which activity at 20 µg/mL did it give?
A: 72%

same assay, conditions: Table 2, 72 h incubation, 20 mg/l

Q: How did the “chlorophyll accumulation (in words)” value turn out when CC(=O)NCCO [NAE-2, N-Acetyl-2-aminoethanol] was run?
A: greater effect than other NAEs

same assay, conditions: Table 3, 48 h incubation, 20 mg/l

Q: Which “cotyledon expansion (in words)” value does the source give for CCCCCCCC/C=C\CCCCCCCC(=O)NCCO [NAE-18:1(Δ9), N-Oleoyl-2-aminoethanol] here?
A: slowed cotyledon expansion

Q: What about the “hormone-like activity with respect to expansion growth (in words)” value (from here on “hormone-like activity”) of the same compound?
A: ethylene-like activity

Q: How did the “hormone-like activity” value turn out when CCCC(=O)NCCO [NAE-4:0, N-Butyroyl-2-aminoethanol] was run?
A: ethylene-like activity

Q: How did the “cotyledon expansion (in words)” value turn out when CC(=O)NCCO [NAE-2, N-Acetyl-2-aminoethanol] was run?
A: slowed cotyledon expansion

Q: And the “hormone-like activity” value?
A: ethylene-like activity

same assay, conditions: summary statement in the description

Q: CCCCCCCCCCCCCC(=O)NCCO [NAE-14:0, N-Tetradecanoyl-2-aminoethanol] was tested. Which “cytokinin-like activities (summary of the examples)” value (from here on “cytokinin-like activities”) did it give?
A: cytokinin-like activities

Q: With CCCCCCCC/C=C\CCCCCCCC(=O)NCCO [NAE-18:1(Δ9), N-Oleoyl-2-aminoethanol] as the compound, how does the “cytokinin-like activities” value read?
A: cytokinin-like activities

Q: And the “ethylene-like activities (summary of the examples)” value (from here on “ethylene-like activities”)?
A: ethylene-like activities

Q: With CCCC(=O)NCCO [NAE-4:0, N-Butyroyl-2-aminoethanol] as the compound, how does the “cytokinin-like activities” value read?
A: cytokinin-like activities

Q: And the “ethylene-like activities” value?
A: ethylene-like activities

Q: With CC(=O)NCCO [NAE-2, N-Acetyl-2-aminoethanol] as the compound, how does the “ethylene-like activities” value read?
A: ethylene-like activities

system: tomato variety FL47 mature green tomatoes; test: Tomato bioassay (spray application or vacuum infiltration of harvested mature green tomatoes, ripening judged by colour); type: in vivo; conditions: sprayed with 500 ppm; 5 to 7 days after treatment; FIGS. 2-5
Procedure: Tomato bioassay: NAE solutions containing 20 ppm or 500 ppm of NAE were used to treat harvested tomatoes as described below. The solutions were prepared by dispersing a solid NAE compound in water through sonication.
Egg LPE was purchased from Avanti Polar Lipids (Alabaster, Ala.). Egg LPE solutions containing 20 ppm or 500 ppm LPE were used as positive controls in the assays described below. The solutions were prepared by dispersing LPE into water through sonication or aggressive agitation.
The tomatoes used in this study were tomato variety FL47 (cultivar), 6×6 mature green tomatoes of good quality MG3–4 ([…]: no apparent external change from green to pink). The tomatoes were purchased from West Coast Tomato (Palmetto, Fla.) and Dimare Tomato (Homestead, Fla.).
The system used for classifying tomato mature stages is as the follows: Green (Stage 1)—“Green” means that the surface of the tomato is completely green in color. The shade of green may vary from light to dark. Breakers (Stage 2)—“Breakers” means there is a definite “break” in color from green, to tannish-yellow, pink or red on not more than 10% of the surface. […] Red (R) (Stage 6)—“Red” means that more than 90% of the surface, in the aggregate, is red.
Locules contain hard, white substance. […] Seeds are forming and are white. […] Seeds are fully formed and are turning from white to beige. MG4-Fruit are softening a little but still completely green on the outside. Inside locular gel is completely formed with hints of pink coloration in the columella tissue. Seeds are dark beige to light brown.
In spray application bioassays, the tomatoes were placed in 100° F. water for 90 seconds, after which the tomatoes were removed from water and placed stem scar up onto a sheet of plastic. An NAE solution or LPE solution was sprayed onto the tomatoes at 30 psi using a flat fan tip situated approximately 8 to 10 inches above the tomatoes. The tomatoes were air dried and placed on a sheet of white paper with stem scar down under consistent environmental conditions. Five to seven days later, the ripening of the tomatoes were determined by visual observation of the color of the tomatoes.
In vacuum infiltration bioassay, each tomato was placed on top of a vacuum bell jar platform with stem scar facing up. 0.5 ml of NAE solution or LPE solution was placed onto stem scar and the glass bell jar lid was lowered onto the jar platform. The vacuum was started and the air escaped from the interior of the tomato causing the NAE solution or the LPE solution on the stem scar to bubble. After a preset time period, the air inlet was opened slowly to release vacuum in the bell jar. […] Five to seven days later, the ripening of the tomatoes were determined by visual observation of the color of the tomatoes.

Q: With CCCCCCCCCCCCCC(=O)NCCO [NAE-14:0, N-Tetradecanoyl-2-aminoethanol] as the compound, how does the “number of ripened tomatoes compared to the control group” value read?
A: higher number of ripened tomatoes

same assay, conditions: vacuum infiltrated with 20 ppm; 5 to 7 days after treatment; FIGS. 2-5

Q: Which “number of ripened tomatoes compared to the control group” value does the source give for CCCCCCCCCCCCCC(=O)NCCO [NAE-14:0, N-Tetradecanoyl-2-aminoethanol] here?
A: higher number of ripened tomatoes

system: maize roots; test: Corn root bioassay (ethylene production by maize roots); type: in vivo, Zea mays L.; conditions: Zea mays; experiment 1; 20 mg/l; 72 h; read-out: Ethylene, % of control
Procedure: Corn root bioassay: It is well established that roots of Zea mays produce ethylene when exposed to a variety of stresses (for review, see Morgan, PW and Drew, MC, Physiologia Plantarum 100: 620–630, 1997). Mechanical impedance and hypoxia both induce ethylene formation and usually as early as 1 hour after exposure. In response to ethylene treatment, maize roots show decreased expansion and elongation, a high incidence of cell death and the formation of aerenchyma tissue—particularly evident when roots are exposed to hypoxic conditions (Drew, MC et al., Trends in Plant Science 5: 123–127, 2000, Morgan and Drew 1997).
Seeds of Zea mays L. were sown in flats of Perlite, covered with a layer of vermiculite, and irrigated daily with water and/or 1/10 Hoagland solution. Seedlings were cultivated under continuous illumination at 22–25° C. and used when 7 d old. Seedlings were removed from the Perlite and washed under running tap water. Seedlings were allowed to acclimate in water and/or 1/10 Hoagland solution for several hours before being transferred to Falcon tubes containing the test compounds (all 20 mg/l) prepared in 1/10 Hoagland solution. […] Roots were then transferred to gas-tight tubes each containing 200 μl of water. The tubes were sealed and incubated at 26° C. for 1–2 h in darkness before gas samples were drawn from the incubation tubes using a 1 ml syringe and assayed by gas chromatography (Romera, FJ et al. (1999) Annals of Botany 83, 51–55).

Q: Which activity at 20 µg/mL does the source give for CC(=O)NCCO [NAE-2, N-Acetyl-2-aminoethanol] here?
A: 146%

same assay, conditions: Zea mays; experiment 2; 20 mg/l; 36 h; read-out: Ethylene, % of control

Q: How did the activity at 20 µg/mL turn out when CC(=O)NCCO [NAE-2, N-Acetyl-2-aminoethanol] was run?
A: 160%

same assay, conditions: experiment 2; 20 mg/l; 36 h illumination; roots incubated 2 h in darkness at 24° C.

Q: For CC(=O)NCCO [NAE-2, N-Acetyl-2-aminoethanol], which Ethylene is on record?
A: 45.96 ± 12.53 pmol/g FW/h

same assay, conditions: other experiments using a different treatment time

Q: With CCCCCCCC/C=C\CCCCCCCC(=O)NCCO [NAE-18:1(Δ9), N-Oleoyl-2-aminoethanol] as the compound, how does the “increase of ethylene production (in words)” value read?
A: effective

Q: Which “increase of ethylene production (in words)” value does the source give for CCCC(=O)NCCO [NAE-4:0, N-Butyroyl-2-aminoethanol] here?
A: effective
